Tests used:
[1] = system: normal primary NK cells, pool 1 (3 donors), resting (IL-2 0 ng/mL); test: drug sensitivity score (DSS) (DSS units); higher = more sensitive; extreme values may be limits of the assay; conditions: 72 h
YT (IL-2 2.5 ng/mL) [2] = test: as above; conditions: 72 h
DERL-7 (IL-2 2.5 ng/mL) [3] = test: as above; conditions: 72 h
KAI3 (IL-2 2.5 ng/mL) [4] = test: as above; conditions: 72 h
IMC-1 (IL-2 20 ng/mL) [5] = test: as above; conditions: 72 h
[6] = system: normal primary NK cells, pool 1 (3 donors) (IL-2 2.5 ng/mL); test: as above; conditions: 72 h
[7] = system: normal primary NK cells, pool 2 (3 donors) (IL-2 2.5 ng/mL); test: as above; conditions: 72 h
NK-92 (IL-2 2.5 ng/mL) [8] = test: as above; conditions: 72 h
NKL (IL-2 2.5 ng/mL) [9] = test: as above; conditions: 72 h
[10] = system: normal primary NK cells, pool 3 (3 donors) (IL-2 2.5 ng/mL); test: as above; conditions: 72 h
SNK-6 (IL-2 2.5 ng/mL) [11] = test: as above; conditions: 72 h
KHYG-1 (IL-2 2.5 ng/mL) [12] = test: as above; conditions: 72 h
NK-YS (IL-2 2.5 ng/mL) [13] = test: as above; conditions: 72 h
[14] = system: normal primary NK cells, pool 1 (3 donors), resting (IL-2 0 ng/mL); test: percent inhibition of viability; higher = more inhibition; conditions: 72 h
YT (IL-2 2.5 ng/mL) [15] = test: as above; conditions: 72 h
DERL-7 (IL-2 2.5 ng/mL) [16] = test: as above; conditions: 72 h
KAI3 (IL-2 2.5 ng/mL) [17] = test: as above; conditions: 72 h
IMC-1 (IL-2 20 ng/mL) [18] = test: as above; conditions: 72 h
[19] = system: normal primary NK cells, pool 1 (3 donors) (IL-2 2.5 ng/mL); test: as above; conditions: 72 h
[20] = system: normal primary NK cells, pool 2 (3 donors) (IL-2 2.5 ng/mL); test: as above; conditions: 72 h
NK-92 (IL-2 2.5 ng/mL) [21] = test: as above; conditions: 72 h
NKL (IL-2 2.5 ng/mL) [22] = test: as above; conditions: 72 h
[23] = system: normal primary NK cells, pool 3 (3 donors) (IL-2 2.5 ng/mL); test: as above; conditions: 72 h
SNK-6 (IL-2 2.5 ng/mL) [24] = test: as above; conditions: 72 h
KHYG-1 (IL-2 2.5 ng/mL) [25] = test: as above; conditions: 72 h
NK-YS (IL-2 2.5 ng/mL) [26] = test: as above; conditions: 72 h
[27] = system: normal NK cells expanded with K562-aAPC; test: drug sensitivity score (DSS) (DSS units); higher = more sensitive; extreme values may be limits of the assay; conditions: 72 h; IL-2 2.5 ng/mL
Method: (§1)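 Drug sensitivity and resistance testing on K562-aAPC-expanded normal NK cells: 5 concentrations (10-fold steps over a 10,000-fold range), 72 h at 37 °C, viability by CellTiter-Glo normalised to DMSO and benzethonium chloride controls; DSS from the fitted curve.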

[28] = system: normal NK cells expanded with K562-aAPC; test: percent inhibition of viability; higher = more inhibition; conditions: 72 h, IL-2 2.5 ng/mL
Method: as §1

COc1cc2c(NC3CCN(C(C)C)CC3)nc(N3CCC(F)(F)CC3)nc2cc1OCCCN1CCCC1 [UNC0642] (max concentration tested 10000 nM)
Conditions	drug sensitivity score
DERL-7 (IL-2 2.5 ng/mL) [3]	5.6
IMC-1 (IL-2 20 ng/mL) [5]	6.92
KAI3 (IL-2 2.5 ng/mL) [4]	11.3
KHYG-1 (IL-2 2.5 ng/mL) [12]	2.2
NK-92 (IL-2 2.5 ng/mL) [8]	3.1
NK-YS (IL-2 2.5 ng/mL) [13]	6.94
NKL (IL-2 2.5 ng/mL) [9]	9.05
SNK-6 (IL-2 2.5 ng/mL) [11]	9.35
YT (IL-2 2.5 ng/mL) [2]	4.75
[1]	9.04
[6]	8.52
[7]	5.23
[10]	5.16
[27]	7.22

percent inhibition of viability [%]
Conditions	1 nM	10 nM	100 nM	1000 nM	10000 nM
DERL-7 (IL-2 2.5 ng/mL) [16]	-0.28	1.37	-1.94	0.05	99.9
IMC-1 (IL-2 20 ng/mL) [18]	-11.9	-4.05	-6.38	8.61	100
KAI3 (IL-2 2.5 ng/mL) [17]	-0.96	1.92	10.1	48.5	103
KHYG-1 (IL-2 2.5 ng/mL) [25]	-4.39	-1.22	-6.31	6.97	28.1
NK-92 (IL-2 2.5 ng/mL) [21]	-11	-2.07	-11.4	3.52	49
NK-YS (IL-2 2.5 ng/mL) [26]	-3.38	-1.95	0.35	8.5	101
NKL (IL-2 2.5 ng/mL) [22]	-6.06	-13.9	-8.65	22.1	105
SNK-6 (IL-2 2.5 ng/mL) [24]	-9.05	11.3	2.25	25.3	99.3
YT (IL-2 2.5 ng/mL) [15]	-6.39	-3.26	-2.23	4.47	74.2
[14]	9.19	22.7	14	28.9	98.6
[19]	-1.76	13.1	19.9	18.1	101
[20]	-4.62	6.45	-2.04	-4.01	99.7
[23]	-1.76	4.79	4.65	-5.45	100
[28]	-4.11	-7.96	-1.75	10.2	100

COc1cc(N2CCC(N3CCN(C)CC3)CC2)ccc1Nc1ncnc(Nc2ccccc2S(=O)(=O)C(C)C)n1 [ASP3026] (max concentration tested 10000 nM)
Conditions	drug sensitivity score
DERL-7 (IL-2 2.5 ng/mL) [3]	3.14
IMC-1 (IL-2 20 ng/mL) [5]	5.24
KAI3 (IL-2 2.5 ng/mL) [4]	3.79
KHYG-1 (IL-2 2.5 ng/mL) [12]	5.05
NK-92 (IL-2 2.5 ng/mL) [8]	0.4
NK-YS (IL-2 2.5 ng/mL) [13]	3.39
NKL (IL-2 2.5 ng/mL) [9]	4.54
SNK-6 (IL-2 2.5 ng/mL) [11]	0
YT (IL-2 2.5 ng/mL) [2]	5.89
[1]	3.53
[6]	3.22
[7]	0.97
[10]	0.03
[27]	6.45

percent inhibition of viability [%]
Conditions	1 nM	10 nM	100 nM	1000 nM	10000 nM
DERL-7 (IL-2 2.5 ng/mL) [16]	0.73	-6.32	2.12	0.42	57.2
IMC-1 (IL-2 20 ng/mL) [18]	-8.57	-5.26	-7.48	-3.28	98.9
KAI3 (IL-2 2.5 ng/mL) [17]	5.1	3.91	7.67	16.4	42.7
KHYG-1 (IL-2 2.5 ng/mL) [25]	-6.71	0.13	-0.92	10.2	61.3
NK-92 (IL-2 2.5 ng/mL) [21]	-10.8	-22.5	-27.1	-14.8	22.2
NK-YS (IL-2 2.5 ng/mL) [26]	-5.41	-0.07	-1.63	6.41	44.9
NKL (IL-2 2.5 ng/mL) [22]	-3.77	-9.59	5.62	18.9	47.8
SNK-6 (IL-2 2.5 ng/mL) [24]	-14.8	-8.98	-26.5	-35.9	8.43
YT (IL-2 2.5 ng/mL) [15]	-2.02	-0.55	1.22	12.5	69.4
[14]	-11.5	-0.46	-1.76	10.4	39.3
[19]	-1.83	5.98	6.01	9.21	38.7
[20]	-4.59	-7.52	3.32	-3.09	28.1
[23]	1.7	-6.92	8.07	2.81	13.3
[28]	0.75	-1.15	0.69	7.2	96.3
